The source of these data is patent EP3741762A1, “OXALAMIDO-SUBSTITUTED TRICYCLIC INHIBITORS OF HEPATITIS B VIRUS” (priority 2019, dated 2020).

SMILES strings stand for the structures.

In this experiment the test system is HBV. Put plainly: Anti-HBV activity in vitro: quantification of extracellular HBV DNA by direct qPCR in HepAD38 cells. Format: cell-based. The note with it: Hepatitis B virus, tetracycline-free medium, 96 hours at 37°C, reported as EC50 threshold value, read-out: HBV inh EC50. An excerpt:
HepAD38 cell line (Ladner et al., Antimicrob Agents Chemother, 1997, 41, 1715-20) was used for HBV inhibition assays. HepAD38 is a subclone, derived from Hepatoblastoma cell line HepG2 (ATCC® Number: HB-8065™), that expresses HBV genome under the transcriptional control of a tetracycline-responsive promoter in a TET-OFF system: addition of tetracycline (TET) or doxycycline suppresses HBV replication, while its removal switches on the process allowing HBV viral particles release in the cell supernatant. HepAD38 cell line is maintained in DMEM/F12, supplemented with 10% of fetal bovine serum, 1% of glutamine, 1% of penicillin/streptomycin, 0.4 mg/ml G418 and 0,3 ug/ml tetracycline. For the HBV inhibition assay, doxycycline-free medium is used in order to allow virion production.
HBV inhibition activity in vitro was performed in 96 multiwell plates. During the initial (primary) screening, compounds were first tested in triplicates at concentrations of 0.02 µM, 0.1 µM, 0.5µM and 1µM. For selected compounds, an 8-point dose-response curve was obtained using 1:2 serial dilutions (starting from 0.01µM, 0.1µM, 0.4µM or 5 µM, depending on the degree of inhibition observed during the primary screening). From the dose-response curves, half maximal effective concentration (EC50) could be calculated (see also below).
In more detail, compounds - typically dissolved in DMSO stock solutions - were diluted to 2x the final desired concentration in 100 µl of the above medium (without doxycycline) and plated in three replicates in the 96-well plates.
Simultaneously, HepAD38 cells - extensively pre-washed in tetracycline-free medium in order to induce HBV production - were suspended at 2^∗10^4 cells in 100 µl of tetracycline-free medium and added to each well of the plate, to yield a final assay volume of 200 µl DMSO - used for stock solutions and compounds dilutions - which was always present in the assays at a final concentration of 0.5%.
Plates were then incubated 96 hours at 37°C and then subjected to cell viability assays and extracellular HBV quantification, in order to evaluate both the cytotoxic potential and the antiviral activity of compounds. Cytotoxicity was assessed by a commercial fluorescence assay that measures the metabolic activity of cells, directly related to cell viability (Cell Titer Blue, Promega). Anti-HBV activity was evaluated by quantification of extracellular HBV DNA with direct qPCR. In particular, supernatant was collected and centrifuged for cell debris clarification, viral DNA was extracted from virions by addition of lysis buffer (1 mM 1,4-dithiothreitol, 0.2% sodium dodecyl sulphate) and incubated at 95°C for 10 min. Samples were then diluted 1:40 and real time PCR amplification was performed with SYBR green assay (Power SYBR™ Green PCR Master Mix-Thermo Fisher Scientific) and specific HBV primer (HBV-DF:5'-[…]-3' (SEQ ID No. 1), HBV-DR:5'-[…]-3' (SEQ ID No.2)).
Antiviral activity data for each compound are reported as EC50 threshold value (see Table 1 legend). Excel and Graphpad Prism programs are typically used for data elaboration and EC50 calculation.
What is called EC50 is the concentration giving half of the maximal effect. For the molecule `CNC(=O)C(=O)N1C[C@H]2CSc3c(cn(C)c3C(=O)Nc3ccc(F)c(C)c3)S(=O)(=O)N[C@H]2C1` [Example E35, (3aR,10aR)-N-(4-fluoro-3-methylphenyl)-7-methyl-2-(2-(methylamino)-2-oxoacetyl)-2,3,3a,4,10,10a-hexahydro-1H,7H-dipyrrolo[3,4-c:3',4'-g][1,6,2]dithiazocine-8-carboxamide 5,5-dioxide], the concentration giving a half-maximal response (EC50) was under 500 nM.
Next, `Cc1cc(NC(=O)c2c3c(cn2C)S(=O)(=O)N[C@H]2CN(C(=O)C(=O)N4CC(F)(F)C4)C[C@H]2CS3)ccc1F` [Example E36, (3aR,10aR)-2-(2-(3,3-difluoroazetidin-1-yl)-2-oxoacetyl)-N-(4-fluoro-3-methylphenyl)-7-methyl-2,3,3a,4,10,10a-hexahydro-1H,7H-dipyrrolo[3,4-c:3',4'-g][1,6,2]dithiazocine-8-carboxamide 5,5-dioxide]: under 500 nM.
For the molecule `Cc1cc(NC(=O)c2c3c(cn2C)S(=O)(=O)N[C@H]2CN(C(=O)C(=O)N[C@@H](C)C(F)(F)F)C[C@H]2CS3)ccc1F` [Example E37, (3aR,10aR)-N-(4-fluoro-3-methylphenyl)-7-methyl-2-(2-oxo-2-(((S)-1,1,1-trifluoropropan-2-yl)amino)acetyl)-2,3,3a,4,10,10a-hexahydro-1H,7H-dipyrrolo[3,4-c:3',4'-g][1,6,2]dithiazocine-8-carboxamide 5,5-dioxide], the EC50 was under 500 nM.
`Cc1cc(NC(=O)c2c3c(cn2C)S(=O)(=O)N[C@H]2CN(C(=O)C(=O)NCC(F)(F)F)C[C@H]2CS3)ccc1F` [Example E38, (3aR,10aR)-N-(4-fluoro-3-methylphenyl)-7-methyl-2-(2-oxo-2-((2,2,2-trifluoroethyl)amino)acetyl)-2,3,3a,4,10,10a-hexahydro-1H,7H-dipyrrolo[3,4-c:3',4'-g][1,6,2]dithiazocine-8-carboxamide 5,5-dioxide]: the EC50 is under 500 nM.
Next, `Cc1cc(NC(=O)c2c3c(cn2C)S(=O)(=O)N[C@H]2CN(C(=O)C(=O)NCC4CC4)C[C@H]2CS3)ccc1F` [Example E39, (3aR,10aR)-2-(2-((cyclopropylmethyl)amino)-2-oxoacetyl)-N-(4-fluoro-3-methylphenyl)-7-methyl-2,3,3a,4,10,10a-hexahydro-1H,7H-dipyrrolo[3,4-c:3',4'-g][1,6,2]dithiazocine-8-carboxamide 5,5-dioxide]: under 500 nM; `Cc1cc(NC(=O)c2c3c(cn2C)S(=O)(=O)N[C@H]2CN(C(=O)C(=O)NC4(C)CC4)C[C@H]2CS3)ccc1F` [Example E40, (3aR,10aR)-N-(4-fluoro-3-methylphenyl)-7-methyl-2-(2-((1-methylcyclopropyl)amino)-2-oxoacetyl)-2,3,3a,4,10,10a-hexahydro-1H,7H-dipyrrolo[3,4-c:3',4'-g][1,6,2]dithiazocine-8-carboxamide 5,5-dioxide]: under 500 nM; `Cc1cc(NC(=O)c2c3c(cn2C)S(=O)(=O)N[C@H]2CN(C(=O)C(=O)NC4CC(F)(F)C4)C[C@H]2CS3)ccc1F` [Example E41, (3aR,10aR)-2-(2-((3,3-difluorocyclobutyl)amino)-2-oxoacetyl)-N-(4-fluoro-3-methylphenyl)-7-methyl-2,3,3a,4,10,10a-hexahydro-1H,7H-dipyrrolo[3,4-c:3',4'-g][1,6,2]dithiazocine-8-carboxamide 5,5-dioxide]: under 500 nM.
To `Cc1cc(NC(=O)c2c3c(cn2C)S(=O)(=O)N[C@H]2CN(C(=O)C(=O)NC4(C)COC4)C[C@H]2CS3)ccc1F` [Example E42, (3aR,10aR)-N-(4-fluoro-3-methylphenyl)-7-methyl-2-(2-((3-methyloxetan-3-yl)amino)-2-oxoacetyl)-2,3,3a,4,10,10a-hexahydro-1H,7H-dipyrrolo[3,4-c:3',4'-g][1,6,2]dithiazocine-8-carboxamide 5,5-dioxide] belongs under 500 nM.
